Measurements reported in patent publication US4264577A, “Contraceptive methods and compositions” (Eli Lilly and Company, priority 1980, dated 1981).
Values joined by “and” are separate entries in the source; they are usually repeats but may differ in a detail not shown here. Identical values can stand only once.

Tests used:
[1] = Drug release rate in vitro from dimethylpolysiloxane rubber, Method A (calcium-free Ringer's, assayed by acrosin inhibition); assay type: physicochemical
Method: An appropriate sample of a dimethylpolysiloxane rubber compound in which is incorporated the test compound is placed in a suitable amount of calcium-free Ringers solution, and the sample and solution are incubated together at 37° C. for a period of time (e.g. 24 hours). The solution is removed and assayed for acrosin inhibition (expressed as units per milligram) using the technique described in Example 1. The equivalent amount of test compound in the removed solution is calculated from standard inhibition curves in which acrosin inhibition is plotted against concentration of the test compound. The calculated result are expressed as micrograms of test compound released per day.
The above test may be repeated for an extended period of time, for example, for 1 day to 360 days, or more, by adding fresh calcium-free Ringer's solution after each removal of the solution for assay.
Samples of a dimethylpolysiloxane rubber composition containing 10% W/W of sodium n-tetradecyl sulfate (prepared by Example 3, Method A) were tested as above described for 14 days. The sample weight was 14 mg. and the amount of added solution was 1 ml. After the 14th day, the release rate from the samples averaged 1-3 micrograms/day.
In another experiment, a dimethylpolysiloxane rubber composition weighing 400 mg. and containing 10% W/W of sodium tetradecyl sulfate (prepared by Example 3, Method A) was studied for a 90-day period.

[2] = tested on: rabbits; assay: Efficacy in vivo, rods sutured into both uterine horns, bred weekly; set-up: species or system rabbit; details: five rabbits, rods 20% (W/W) in both uterine horns, bred weekly for 225 days
Source text: (b) Five rabbits having rods containing 20% (W/W) sodium tetradecyl
sulfate (as described above) sutured into both uterine horns were bred

[3] = tested on: female rabbits; assay: Drug release rate and efficacy in vivo, intravaginal medicated rubber rings; set-up: species or system rabbit; details: vaginal ring 500 mg, 20% W/W; for Amount of sodium n-tetradecyl sulfate released. (μg. per day): per animal; for No. of Embryos (per animal): sulfate
Method: Dimethylpolysiloxane rods (4 mm. diameter) weighing 500 mg. and containing 20% (W/W) sodium n-tetradecyl sulfate (prepared by Example 3, Method B, lot no. 225-3) are formed into a circle of approximately 20 mm. diameter. The rings are inserted into the vagina of female rabbits and are held in place by sutures. The rabbits are bred either 7 or 32 days after insertion of the rings. Eleven days after breeding, the animals are sacrificed and the genital system examined for pregnancy. The rings are removed, washed, and extracted with methanol (24 hour continuous,) to remove the remaining sodium n-tetradecyl sulfate. The amount of active compound is determined by the methylene blue method, as described in Part A, above. The amount of sodium n-tetradecyl sulfate remaining in the circular rod is subtracted from the original amount present, and the difference is assumed to be the amount released over the time period.

[4] = tested on: cumulus oophorus of rabbit ova; assay: Removal of cumulus oophorus from ova by hyaluronidase, in vitro; assay type: cell-based; details: 10 μl. of 10 mg./ml. solution in 1 ml medium, 37° C.; sulfate
Method: (§1) In the absence of sodium n-tetradecyl sulfate, complete removal of the cumulus oophorus and zona pellucida is observed.
Female rabbits are given 100 units of pregnant mares serum (PMS), IM, and 134 units of HCG, IV. After 13 hours the animals are sacrificed, and the ovaries are excised. The ovaries are submerged in calcium-free Ringer's solution containing 20% rabbit serum which had been heated to 55° C. for 20 minutes. Ova with cumulus intact are removed and placed in calcium-free Ringer's solution for incubation at 37° C. Hyaluronidase (10 μl.) of a 10 mg./ml. solution in calcium-free Ringer's solution is added to 20 ova in 1 ml. of the incubation medium. To 10 ova in the same medium is added 10 μl. of a solution of sodium n-tetradecyl sulfate (10 mg./ml.) in calcium-free Ringer's solution. To 10 other ova in the same media is added 10 μl. of calcium-free Ringer's solution as control. The mixtures are incubated at 37° C., and the cumulus oophorus is examined at 15 minute intervals with an American Optical stereomicroscope. In the absence of sodium tetradecyl sulfate, the cumulus oophorus is completely removed.

[5] = tested on: zona pellucida of rabbit ova; assay: Removal of zona pellucida from ova by acrosin, in vitro; assay type: cell-based; details: 10 μl. of 10 mg./ml. solution, 37° C.; sulfate
Method: as §1
Female rabbits are given 100 units of pregnant mares serum (PMS), IM, and 134 units of HCG, IV. After 13 hours the animals are sacrificed and the ovaries are excised. The ovaries are submerged in calcium-free Ringer's solution. Ova are removed and placed in 1 ml. of calcium-free Ringer's solution The solutions are all shaken vigorously for 5 to 10 minutes, which rids the ova of the cumulus oophorus and the corona radiata. Acrosin (isolated from boar sperm) (100 μl., of a solution containing 2000 U/ml. in 0.1 M sodium acetate and 0.02 M calcium chloride) is added to each of 10 ova. To each of 10 other ova in the same medium is added 10 μl. of solution of sodium n-tetradecyl sulfate (10 mg./ml.) in calcium-free Ringer's solution. To 10 other ova is added […]. of calcium-free Ringer's solution as a control. The solutions are all incubated at 37° C. The zona pellucida is observed at 15 minute intervals with an American Optical stereomicroscope. In the absence of sodium n-tetradecyl sulfate, the zona pellucida is completely removed.

[6] = tested on: sperm; assay: Standard in vitro spermicidal tests (kill or immobilize sperm); assay type: cell-based; details: standard in vitro tests: ability to kill or immobilize sperm
Source text: The alkyl or alkenyl sulfate salts have surface-active properties, and the sodium salts of dodecyl sulfate (lauryl sulfate), tetradecyl sulfate (myristyl sulfate), and hexadecyl sulfate (cetyl sulfate) are particularly useful surfactants for many applications. Sodium lauryl sulfate, for example, is widely used in topical creams, lotions and other preparations used for pharmaceutical or cosmetic purposes. A mixture of sodium lauryl sulfate and sodium myristyl sulfate is used commercially as a wetting agent, primarily in the paper industry. It is well known that surfactants may denature proteins when present in aqueous solutions in sufficient concentrations because the surface activity may affect peptide conformation.

[7] = tested on: rats; details: orally (rats); cited from earlier work

## CCCCCCCCCCCCCCOS(=O)(=O)[O-].[Na+] [n-tetradecyl, sodium n-tetradecyl sulfate]
[1]; 14 mg sample, 10% W/W, 1 ml solution, after the 14th day
  release rate from the samples (average): 1-3 micrograms/day
[1]; 400 mg composition, 10% W/W, 90-day period
  mean release rate: 14 µg/day
[1]; Day 0.08 (2 hr.), 400 mg composition, 10% W/W
  Amount of sodium n-tetradecyl sulfate released: 77 µg/day
[1]; Day 0.16 (2 hr.), 400 mg composition, 10% W/W
  Amount of sodium n-tetradecyl sulfate released: 75 µg/day
[1]; Day 0.32 (8 hr.), 400 mg composition, 10% W/W
  Amount of sodium n-tetradecyl sulfate released: 72 µg/day
[1]; Day 1, 400 mg composition, 10% W/W
  Amount of sodium n-tetradecyl sulfate released: 69 µg/day
[1]; Day 2, 400 mg composition, 10% W/W
  Amount of sodium n-tetradecyl sulfate released: 50 µg/day
[1]; Day 5, 400 mg composition, 10% W/W
  Amount of sodium n-tetradecyl sulfate released: 15 µg/day
[1]; Day 7, 400 mg composition, 10% W/W
  Amount of sodium n-tetradecyl sulfate released: 37.5 µg/day
[1]; Day 9, 400 mg composition, 10% W/W
  Amount of sodium n-tetradecyl sulfate released: 50.0 µg/day
[1]; Day 12, 400 mg composition, 10% W/W
  Amount of sodium n-tetradecyl sulfate released: 13 µg/day
[1]; Day 13, 400 mg composition, 10% W/W
  Amount of sodium n-tetradecyl sulfate released: 0 µg/day
[1]; Day 15, 400 mg composition, 10% W/W
  Amount of sodium n-tetradecyl sulfate released: 25 µg/day
[1]; Day 18, 400 mg composition, 10% W/W
  Amount of sodium n-tetradecyl sulfate released: 28 µg/day
[1]; Day 27, 400 mg composition, 10% W/W
  Amount of sodium n-tetradecyl sulfate released: 10 µg/day
[1]; Day 42.5, 400 mg composition, 10% W/W
  Amount of sodium n-tetradecyl sulfate released: 7.6 µg/day
[1]; Day 50.5, 400 mg composition, 10% W/W
  Amount of sodium n-tetradecyl sulfate released: 10.5 µg/day
[1]; Day 57.5, 400 mg composition, 10% W/W
  Amount of sodium n-tetradecyl sulfate released: 12.0 µg/day
[1]; Day 64.5, 400 mg composition, 10% W/W
  Amount of sodium n-tetradecyl sulfate released: 8.6 µg/day
[1]; Day 72.5, 400 mg composition, 10% W/W
  Amount of sodium n-tetradecyl sulfate released: 8.3 µg/day
[1]; Day 76, 400 mg composition, 10% W/W
  Amount of sodium n-tetradecyl sulfate released: 5.6 µg/day
[1]; Day 83, 400 mg composition, 10% W/W
  Amount of sodium n-tetradecyl sulfate released: 5.1 µg/day
[1]; Day 90, 400 mg composition, 10% W/W
  Amount of sodium n-tetradecyl sulfate released: 5.0 µg/day
[1]; rod used in Table 6
  Release rate from dimethylpolysiloxane, in vitro (Calc. on basis of acrosin inhibition): 1 to 3 mg/day
[2]
  pregnancies: without any pregnancies noted
[3]; after seven days
  Amount of sodium n-tetradecyl sulfate released. (μg. per day): 760 μg. per day and 470 μg. per day and 961 μg. per day and 277 μg. per day and 894 μg. per day
[3]; after thirty-two days
  Amount of sodium n-tetradecyl sulfate released. (μg. per day): 644 μg. per day and 522 μg. per day and 288 μg. per day
[3]; bred after seven days
  No. of Embryos (per animal): 0 and 8 and 5
[3]; bred after thirty-two days
  No. of Embryos (per animal): 0 and 3
[4]
  state of cumulus oophorus in presence of hyaluronidase: remains substantially intact
[5]
  state of zona pellucida in presence of acrosin: remains substantially intact
[6]
  classical spermicidal activity: does not show classical spermicidal activity
[7]
  LD50: greater than 3.5 g/kg.
